Earlier results on 3 molecules are cited in patent US20110207832A1, “SKIN DISINFECTANT COMPOSITION AND METHODS FOR MANUFACTURING AND USING” (Skinvisible Pharmaceuticals, Inc., priority 2010, published 2011).

The conditions of series [1]: in vivo.

With `[H]/N=C(\N/C(=N/[H])NCCCCCCNC(=N)NC(=N)Nc1ccc(Cl)cc1)Nc1ccc(Cl)cc1` [chlorhexidine, 1,6-di(4-chlorophenyl-diguanido) hexane], the “water solubility (in words)” value was “practically insoluble in water”.
As to “Poly(vinylpyrrolidone/1-eicosene) [PVPE]”, the dermal toxicity entry in series [1] is listed as “no demonstrable dermal toxicity”.
Consider “Poly(vinylpyrrolidone/1-hexadecene) [PVPH]”, for which the dermal toxicity entry in series [1] is recorded as “no demonstrable dermal toxicity”.
